From patent publication US9845292B2 (Max-Planck-Gesellschaft zur Förderung der Wissenschaften …, priority 2013, dated 2017) come the findings set out here.

One experiment concerns the target T1, FKBP52 (Homo sapiens, UniProt Q02790).
T1 construct: Purified FK1-domains of FKBP51WT (4.5 nM) with F4 (3 nM), FKBP52WT (400 nM) with F2 (20 nM); implied by Ni-NTA purification) (N); made in house; host or cells: E. coli BL21(DE3)pLysS
T1 sequence (Q02790 50-138 limits assumed): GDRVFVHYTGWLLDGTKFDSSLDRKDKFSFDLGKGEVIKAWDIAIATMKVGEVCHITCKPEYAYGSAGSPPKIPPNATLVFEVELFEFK
As to the kind of experiment: Fluorescence polarization binding assay, FK1-domain of FKBP52WT with tracer F2 (selectivity FKBP51 vs. FKBP52). As to conditions: selectivity factor over FKBP52. As for the experimental part:
(§1) The target protein was also diluted in this assay buffer at double the highest concentration required for the final sample. This protein stock was used for a 1:1 serial dilution.
(§2) The inventive compound was dissolved in DMSO to reach a 100-times concentrated stock solution. This was used for a 1:1 serial dilution in DMSO.
(§3) For FKBP12, −51, and −52 the binding assays were performed in duplicates in the plate format.
(§4) The competition curves were analyzed by using SigmaPlot9. Data were fitted to a four parameter logistic curve to deduce the IC50 values. […] A=(Amax−Amin)/[L]t×(([L]t×((2×((Klig+Kcomp+[L]t+[I]t−[R]t)^2−3×(Kcomp×([L]t−[R]t)+Klig×([I]t−[R]t)+Klig×Kcomp))^0.5×COS(ARCCOS((−2×(Klig+Kcomp+[L]t+[I]t−[R]t)^3+9×(Klig+Kcomp+[L]t+[I]t−[R]t)×(Kcomp×([L]t−[R]t)+Klig×([I]t−[R]t)+Klig×Kcomp)−27×(−1×Klig×Kcomp×[R]t))/(2×((((Klig+Kcomp+[L]t+[I]t−[R]t)^2−3×(Kcomp×([L]t−[R]t)+Klig×([I]t−[R]t)+Klig×Kcomp))^3)^0.5)))/3))−(Klig+Kcomp+[L]t+[I]t−[R]t)))/((3×Klig)+((2×((Klig+Kcomp+[L]t+[I]t−[R]t)^2−3×(Kcomp×([L]t−[R]t)+Klig×([I]t−[R]t)+Klig×Kcomp))^0.5×COS(ARCCOS((−2×(Klig+Kcomp+[L]t+[I]t−[R]t)^3+9×(Klig+Kcomp+[L]t+[I]t−[R]t)×(Kcomp×([L]t−[R]t)+Klig×([I]t−[R]t)+Klig×Kcomp)−27×(−1×Klig×Kcomp×[R]t))/(2×((((Klig+Kcomp+[L]t+[I]t−[R]t)^2−3×(Kcomp×([L]t−[R]t)+Klig×([I]t−[R]t)+Klig×Kcomp))^3)^0.5)))/3))−(Klig+Kcomp+[L]t+[I]t−[R]t))))+Amin
(§5) In this equation Klig and Kcomp stand for the Kd values of the used tracer or competing inhibitor, [I]t is referring to the total concentration of the titrated inhibitor.
The Selectivity of the Compounds was Classified by Ki(FKBP51)/Ki(FKBP52)
(§6) Inhibition constants were measured in a fluorescence polarization binding assay by titrating the compounds.

For a further experiment, the target named is T2, FKBP51 (Homo sapiens, UniProt Q13451).
T2 sequence (Q13451 42-130 limits assumed): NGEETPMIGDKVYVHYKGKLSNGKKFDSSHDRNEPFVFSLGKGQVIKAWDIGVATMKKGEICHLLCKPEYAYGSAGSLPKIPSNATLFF
As to the kind of experiment: Fluorescence polarization binding assay, FK1-domain of FKBP51WT with tracer F4. Also on record: Purified FK1-domains of FKBP51WT (4.5 nM) with F4 (3 nM), FKBP52WT (400 nM) with F2 (20 nM); made in house; host or cells: E. coli BL21(DE3)pLysS. The settings on record: read-out: Affinity(Ki) for FKBP51. On the procedure: as §1, §2, §3, §4, §5, §6

[1] abbreviates: FKBP52WT (400 nM) with F2 (20 nM), A series.
Setting [2] is: FK1-domain of FKBP51WT (4.5 nM) with F4 (3 nM), A series.

Structures are written as SMILES. Where two headings read alike, the source gives them in different places.

Broadly, the Ki is a dissociation constant, usually derived from enzyme kinetics or from competition with a known ligand. As for `COc1ccc(CCC(OC(=O)[C@@H]2CCCCN2C(=O)[C@H](NC(=O)c2ccccc2)C2CCCCC2)c2cccc(OCC(=O)O)c2)cc1OC` (stereo partly drawn) [Compound A23, 2-(3-(1-(((2S)-1-(2-benzamido-2-cyclohexylacetyl)piperidine-2-carbonyl)oxy)-3-(3,4-dimethoxyphenyl)propyl)phenoxy)acetic acid], on FKBP52 (setting [1]), the “Ki(FKBP51)/Ki(FKBP52)” value was “+ (>5 +)”. Also, at FKBP51 (setting [2]), the inhibition constant Ki was in the range of 10 to 50 µM.
On to `COc1ccc(CCC(OC(=O)[C@@H]2CCCCN2C(=O)C(NC(=O)c2ccccc2O)C2CCCCC2)c2cccc(OCC(=O)O)c2)cc1OC` (stereo partly drawn) [Compound A24, 2-(3-(1-(((2S)-1-(2-cyclohexyl-2-(2-hydroxybenzamido)acetyl)piperidine-2-carbonyl)oxy)-3-(3,4-dimethoxyphenyl)propyl)phenoxy)acetic acid], for which the “Ki(FKBP51)/Ki(FKBP52)” value at FKBP52 (setting [1]) is “+ (>5 +)”. The Ki on FKBP51 (setting [2]) is 10 to 50 µM.
Consider `COc1ccc(CCC(OC(=O)[C@@H]2CCCCN2C(=O)C(NC(=O)c2ccccn2)C2CCCCC2)c2cccc(OCC(=O)O)c2)cc1OC` (stereo partly drawn) [Compound A25, 2-(3-(1-(((2S)-1-(2-cyclohexyl-2-(picolinamido)acetyl)piperidine-2-carbonyl)oxy)-3-(3,4-dimethoxyphenyl)propyl)phenoxy) acetic acid], for which, on FKBP52 (setting [1]), the “Ki(FKBP51)/Ki(FKBP52)” value is “+ (>5 +)”. Further, the inhibitory constant (Ki) on FKBP51 (setting [2]) fell in the range of 10 to 50 µM.
In the case of `COc1ccc(CCC(OC(=O)[C@@H]2CCCCN2C(=O)C(NC(=O)C2CCCCC2)C2CCCCC2)c2cccc(OCC(=O)O)c2)cc1OC` (stereo partly drawn) [Compound A26, 2-(3-(1-(((2S)-1-(2-(cyclohexanecarboxamido)-2-cyclohexylacetyl)piperidine-2-carbonyl)oxy)-3-(3,4-dimethoxyphenyl)propyl)phenoxy)acetic acid], at FKBP52 (setting [1]), the “Ki(FKBP51)/Ki(FKBP52)” value is reported as “+ (>5 +)”. Besides, the Ki on FKBP51 (setting [2]) lay within 10 to 50 µM.
In the case of `COc1ccc(CCC(OC(=O)[C@@H]2CCCCN2C(=O)C(NC(=O)C2N=CN=N2)C2CCCCC2)c2cccc(OCC(=O)O)c2)cc1OC` (stereo partly drawn) [Compound A27, 2-(3-(1-(((2S)-1-(2-cyclohexyl-2-(3H-1,2,4-triazole-3-carboxamido)acetyl)piperidine-2-carbonyl)oxy)-3-(3,4-dimethoxyphenyl)propyl)phenoxy)acetic acid], at FKBP52 (setting [1]), the “Ki(FKBP51)/Ki(FKBP52)” value was “+ (>5 +)”. Further, at FKBP51 (setting [2]), the Ki was 10 to 50 µM.
As to `COc1ccc(CCC(OC(=O)[C@@H]2CCCCN2C(=O)C(NC(=O)c2cc(Cl)cc(Cl)c2)C2CCCCC2)c2cccc(OCC(=O)O)c2)cc1OC` (stereo partly drawn) [Compound A28, 2-(3-(1-(((2S)-1-(2-cyclohexyl-2-(3,5-dichlorobenzamido)acetyl)piperidine-2-carbonyl)oxy)-3-(3,4-dimethoxyphenyl)propyl)phenoxy)acetic acid], the “Ki(FKBP51)/Ki(FKBP52)” value at FKBP52 (setting [1]) is listed as “+ (>5 +)”. The Ki at FKBP51 (setting [2]) is 10 to 50 µM.
Consider `COc1ccc(CC[C@@H](OC(=O)[C@@H]2CCCCN2C(=O)[C@H](c2cccc(F)c2)C2CCCCC2)c2cccc(OCC(=O)O)c2)cc1OC` [Compound A36, 2-(3-((R)-1-(((S)-1-((S)-2-cyclohexyl-2-(3-fluorophenyl)acetyl)piperidine-2-carbonyl)oxy)-3-(3,4-dimethoxyphenyl)propyl)phenoxy)acetic acid], for which the “Ki(FKBP51)/Ki(FKBP52)” value at FKBP52 (setting [1]) is reported as “+++ (>500 +++)”. Moreover, the inhibition constant Ki on FKBP51 (setting [2]) was in the range of 1 to 10 µM.
Take `COc1cc([C@@H](C(=O)N2CCCC[C@H]2C(=O)N[C@@H](C)C(N)=O)C2CCCCC2)cc(OC)c1OC` [Compound B01, (S)-N-((S)-1-amino-1-oxopropan-2-yl)-1-((S)-2-cyclohexyl-2-(3,4,5-trimethoxyphenyl)acetyl)piperidine-2-carboxamide]: at FKBP52 (compounds B01-C25), the “Ki(FKBP51)/Ki(FKBP52)” value was “++ (>50 ++)”. Further, at FKBP51 (compounds B01-C25), the inhibitory constant (Ki) was 1 to 10 µM.
As to `COc1cc([C@@H](C(=O)N2CCCC[C@H]2C(=O)N[C@H](C)C(N)=O)C2CCCCC2)cc(OC)c1OC` [Compound B02, (S)-N-((R)-1-amino-1-oxopropan-2-yl)-1-((S)-2-cyclohexyl-2-(3,4,5-trimethoxyphenyl)acetyl)piperidine-2-carboxamide], the “Ki(FKBP51)/Ki(FKBP52)” value at FKBP52 (compounds B01-C25) is reported as “++ (>50 ++)”. Also, on FKBP51 (compounds B01-C25), the inhibition constant Ki fell in the range of 1 to 10 µM.
For `COc1cc([C@@H](C(=O)N2CCCC[C@H]2C(=O)N[C@H](C(N)=O)C(C)C)C2CCCCC2)cc(OC)c1OC` [Compound B03, (S)-N-((S)-1-amino-3-methyl-1-oxobutan-2-yl)-1-((S)-2-cyclohexyl-2-(3,4,5-trimethoxyphenyl)acetyl)piperidine-2-carboxamide], in that order: “+ (>5 +)” and 10 to 50 µM.
Take `COc1cc([C@@H](C(=O)N2CCCC[C@H]2C(=O)N[C@@H](C(N)=O)C(C)C)C2CCCCC2)cc(OC)c1OC` [Compound B04, (S)-N-((R)-1-amino-3-methyl-1-oxobutan-2-yl)-1-((S)-2-cyclohexyl-2-(3,4,5-trimethoxyphenyl)acetyl)piperidine-2-carboxamide]: the “Ki(FKBP51)/Ki(FKBP52)” value at FKBP52 (compounds B01-C25) is reported as “+ (>5 +)”. Besides, the Ki at FKBP51 (compounds B01-C25) lay within 1 to 10 µM.
For the compound `COc1cc([C@@H](C(=O)N2CCCC[C@H]2C(=O)N[C@@H](Cc2ccccc2)C(N)=O)C2CCCCC2)cc(OC)c1OC` [Compound B05, (S)-N-((S)-1-amino-1-oxo-3-phenylpropan-2-yl)-1-((S)-2-cyclohexyl-2-(3,4,5-trimethoxyphenyl)acetyl)piperidine-2-carboxamide], the “Ki(FKBP51)/Ki(FKBP52)” value on FKBP52 (compounds B01-C25) was “++ (>50 ++)”. At FKBP51 (compounds B01-C25), the Ki is 1 to 10 µM.
For `COc1cc([C@@H](C(=O)N2CCCC[C@H]2C(=O)N[C@H](Cc2ccccc2)C(N)=O)C2CCCCC2)cc(OC)c1OC` [Compound B06, (S)-N-((R)-1-amino-1-oxo-3-phenylpropan-2-yl)-1-((S)-2-cyclohexyl-2-(3,4,5-trimethoxyphenyl)acetyl)piperidine-2-carboxamide], in that order: “++ (>50 ++)” and 1 to 10 µM.
For `COc1cc([C@@H](C(=O)N2CCCC[C@H]2C(=O)N[C@@H](CC2CCCCC2)C(N)=O)C2CCCCC2)cc(OC)c1OC` [Compound B07, (S)-N-((S)-1-amino-3-cyclohexyl-1-oxopropan-2-yl)-1-((S)-2-cyclohexyl-2-(3,4,5-trimethoxyphenyl)acetyl)piperidine-2-carboxamide], in that order: “+ (>5 +)” and 10 to 50 µM.
As to `COc1cc([C@@H](C(=O)N2CCCC[C@H]2C(=O)N[C@@H](CCc2ccccc2)C(N)=O)C2CCCCC2)cc(OC)c1OC` [Compound B08, (S)-N-((S)-1-amino-1-oxo-4-phenylbutan-2-yl)-1-((S)-2-cyclohexyl-2-(3,4,5-trimethoxyphenyl)acetyl)piperidine-2-carboxamide], the “Ki(FKBP51)/Ki(FKBP52)” value on FKBP52 (compounds B01-C25) was “++ (>50 ++)”. For the same compound, the Ki at FKBP51 (compounds B01-C25) was in the range of 1 to 10 µM.
`COc1cc([C@@H](C(=O)N2CCCC[C@H]2C(=O)N[C@@H](CCC2CCCCC2)C(N)=O)C2CCCCC2)cc(OC)c1OC` [Compound B09, (S)-N-((S)-1-amino-4-cyclohexyl-1-oxobutan-2-yl)-1-((S)-2-cyclohexyl-2-(3,4,5-trimethoxyphenyl)acetyl)piperidine-2-carboxamide]: the “Ki(FKBP51)/Ki(FKBP52)” value at FKBP52 (compounds B01-C25) is listed as “++ (>50 ++)”. Besides, the Ki at FKBP51 (compounds B01-C25) lay in the range of 10 to 50 µM.
Consider `COc1cc([C@@H](C(=O)N2CCCC[C@H]2C(=O)NCC(N)=O)C2CCCCC2)cc(OC)c1OC` [Compound B10, (S)-N-(2-amino-2-oxoethyl)-1-((S)-2-cyclohexyl-2-(3,4,5-trimethoxyphenyl)acetyl)piperidine-2-carboxamide], for which the “Ki(FKBP51)/Ki(FKBP52)” value at FKBP52 (compounds B01-C25) was “+ (>5 +)”. Also, the Ki on FKBP51 (compounds B01-C25) was 10 to 50 µM.
As for `COc1cc([C@@H](C(=O)N2CCCC[C@H]2C(=O)NC(C)(C)C(N)=O)C2CCCCC2)cc(OC)c1OC` [Compound B11, (S)-N-(1-amino-2-methyl-1-oxopropan-2-yl)-1-((S)-2-cyclohexyl-2-(3,4,5-trimethoxyphenyl)acetyl)piperidine-2-carboxamide], at FKBP52 (compounds B01-C25), the “Ki(FKBP51)/Ki(FKBP52)” value is recorded as “+++ (>500 +++)”. Moreover, the inhibitory constant (Ki) on FKBP51 (compounds B01-C25) fell in the range of 1 to 10 µM.
